“Also recorded” adds a separate entry of the source.
Tests used:
[1] = clinical application; cited from earlier work
[2] = system: MOG35-55 induced experimental autoimmune encephalomyelitis (EAE) model in C57BL/6 mice; experiment: Clinical scores in MOG35-55 induced EAE model; type: in vivo
[3] = system: MOG35-55 induced experimental autoimmune encephalomyelitis (EAE) model in C57BL/6 mice; experiment: Histopathologic assessment of spinal cord, H&E staining (inflammation) in EAE model; type: in vivo; details: for H&E staining score: day 21, spinal cord, scoring 0 to 4
Protocol: (§1) The mice were anesthetized with isoflurane and immunized with 300 μg MOG 35-55 peptide emulsified (1:1) in […] Freund's adjuvant with 600 μg Mycobacterium tuberculosis. Each mouse received 0.05 ml emulsion (s.c.) at four sites (back shoulder and tail root). The mice were further intraperitoneally injected with 250 μL pertussis toxin (1 μg/mL) at 0 h and 48 h post immunization. The day when MOG 35-55 peptide was injected was set as day 1.
(§2) Mice in Group 1 were treated with vehicle for 20 days (po, qd, from day 1-20). Mice in Group 2, Group 3 and Group 4 were treated with 100 mg/kg Compound 4 for 20 days (po, qd, from day 1-20), 14 days (po, qd, from day 7-20) and 7 days (po, qd, from day 14-20) respectively. FTY720 was used as positive control which was orally administered to mice in Group 5 for 20 days (qd, from day 1-20). The protocols and procedures involving the care and use of animals were approved by the Institutional Animal Care and Use Committee (IACUC) at Bioduro (Shanghai, China). The information of each group is as follows.
(§3) At the end of the study (day 21), all the animals were sacrificed by CO2, and the spinal cords were collected and fixed in 10% formalin for pathological analysis (H&E and LFB staining). The histopathological score was evaluated microscopically in a blinded manner.
The inflammation of spinal cord was evaluated by H&E staining using a scoring system from 0 to 4: 0, no inflammatory cell infiltration; 1, inflammatory cell infiltration is limited to perivascular and […]; 2, small amount of inflammatory cell infiltration in the spinal cord; 3, medium number of inflammatory cell infiltration in the spinal cord; 4, large number of inflammatory cell infiltration in the spinal cord.

[4] = system: MOG35-55 induced experimental autoimmune encephalomyelitis (EAE) model in C57BL/6 mice; experiment: Histopathologic assessment of spinal cord, LFB staining (demyelination) in EAE model; type: in vivo; details: for LFB staining score: day 21, spinal cord, scoring 0 to 4
Protocol: as §1, §2, §3
The structure and morphology of spinal cord was evaluated by LFB staining using a scoring system from 0 to 4: 0 represents for no demyelination; 1, a small range of demyelination; 2, 2-3 small range of demyelination; 3, 1-2 large range of demyelination; 4, large-scale demyelination involves more than 20% of white matter areas.

[5] = system: peripheral blood mononuclear cell (PBMC); experiment: Flow cytometry of PBMC lymphocyte subtypes in EAE model; type: in vivo, C57BL/6 mice; details: 100 mg/kg; day 21
[6] = 100 mg/kg po qd, 7 days (d14-d20)
[7] = 100 mg/kg po qd, 14 days (d7-d20)
[8] = 100 mg/kg po qd, 20 days (d1-d20)

Row | SMILES | cardiovascular toxicity [1] | symptoms of multiple sclerosis (clinical score, result in words) ([2]; 1 mpk po qd x 20 d (d1-d20), Group 5, entire experiment) | H&E staining score ([3]; 1 mpk po qd x 20 d (d1-d20)) | LFB staining score ([4]; 1 mpk po qd x 20 d (d1-d20)) | clinical score ([2]; 100 mg/kg po qd, 14 days (d7-d20, Group 3), end of the study (day 21), scoring 0 to 5) | clinical score of EAE (result in words) ([2]; 100 mg/kg po qd, either of the three regimens (20, 14, 7 days)) | H&E staining score [3, 6] | H&E staining score [3, 7] | H&E staining score [3, 8] | H&E staining scores (result in words) ([3]; FIG. 3 legend, regimen not stated) | LFB staining score [4, 6] | LFB staining score [4, 7] | LFB staining score [4, 8] | LFB staining scores (result in words) ([4]; FIG. 2 legend, regimen not stated) | number of B lymphocytes (CD45+CD3-B220+) in the PBMC [5] | number of CD4+ T lymphocytes (CD45+CD3+CD4+) in the PBMC [5] | number of CD8+ T lymphocytes (CD45+CD3+CD8+) in the PBMC [5] | number of T lymphocytes (CD45+CD3+) in the PBMC [5] | number of double negative T lymphocytes (CD45+CD3+CD4-CD8−) in the PBMC [5] | number of leukocytes (CD45+) in the PBMC [5]
1 | CCCCCCCCc1ccc(CCC(N)(CO)CO)cc1.Cl [FTY720, reference compound] | obvious cardiovascular toxicity | no mice developing symptoms of multiple sclerosis | 0 | 0 | – | – | – | – | – | – | – | – | – | – | – | – | – | – | – | –
2 | O=C(NS(=O)(=O)c1ccc(NC[C@H]2COCCO2)c([N+](=O)[O-])c1)c1ccc(N2CCN(CC3=C(c4ccc(Cl)cc4)CC4(CCC4)CC3)CC2)cc1Oc1cnc2[nH]ccc2c1 [Compound 4, (S)-N-((4-(((1,4-dioxan-2-yl)methyl)amino)-3-nitrophenyl)sulfonyl)-2-((1H-pyrrolo[2,3-b]pyridin-5-yl)oxy)-4-(4-((6-(4-chlorophenyl)spiro[3.5]non-6-en-7-yl)methyl)piperazin-1-yl)benzamide] | – | – | – | – | 2.00±0.58 | significantly reducing the clinical score of EAE; also recorded: reduced the clinical scores | 2.10±0.41 | 1.11±0.33 | 2.00±0.39 | reduced the H&E staining scores | 1.30±0.37 | 1.33±0.44 | 1.80±0.29 | reduced the LFB staining scores | significantly reduced | significantly reduced | significantly reduced | significantly reduced | significantly reduced | significantly reduced

Reference: patent publication US20240316069A1, “METHODS OF TREATING MULTIPLE SCLEROSIS” (ASCENTAGE PHARMA (SUZHOU) CO., LTD., priority 2020, published 2024)
